Assay results taken from article PMC8708666, “Screening of Self-Assembling of Collagen IV Fragments into Stable Structures Potentially Useful in Regenerative Medicine” (International Journal of Molecular Sciences, 2021).

What was measured:
[1] = Microscopic examination of peptide aggregates stained with Congo Red; assay type: physicochemical; details: phosphate buffer pH 7.2, 37.5 °C, 7 days
Experimental: In addition to CD studies, microscopic studies of peptides 1–33 and 2.1–2.4 stained with Congo Red were also performed. This method of visualization of peptide aggregates is a typical method of studying β-sheet structures in amyloid-type fibers.
In order to initiate aggregation, peptides were dissolved in a phosphate buffer solution of pH 7.2 and a concentration of 250 μM (approx. […] of peptide per 1 mL of solution) and incubated at 37.5 °C for 7 days.
Congo Red solution with a concentration of […] was prepared by dissolving the dye (Sigma-Aldrich) (17.42 mg; 0.025 mmol) in phosphate buffer (pH = 7.2) (10 mL) with the following composition: 100 mM NaH2PO4/Na2HPO4, 137 mM NaCl and 10% EtOH. Ethyl alcohol was added to the buffer to counteract the formation of dye micelles. A sample for microscopic analysis (peptide solution) was centrifuged at 12,000–14,000 rpm to precipitate. In the next step, the solution was decanted and the residue was washed three times with water to remove excess dye. Then, a suspension of the peptide in water was applied to a microscope slide. The samples were dried in a stream of air at room temperature and analyzed under polarized light.
The obtained structures were analyzed using a Delta Optical Genetic Pro (Warsaw, Poland) light microscope.

[2] = CD study of self-organization into structures mimicking the collagen triple helix; assay type: physicochemical; parameters: key to Ability to Mimic the Structure of the Collagen Helix: +++: peptides that were able to mimic the spatial structure of collagen at 4 °C, 20 °C and 40 °C; +: a fragment mimicking the spatial structure of collagen only at 4 °C; fragments that do not have the ability to aggregate into stable three-dimensional structures; details: CD at 4 °C, 20 °C and 40 °C after 24 h incubation; for ability to self-organize into structures mimicking the triple helix (CD): water, 0.1 mg/mL
Description: The next stage of the research was to check whether peptides 1–33 and 2.1–2.4 have the ability to self-organize, enabling the formation of structures mimicking the structure of the triple helix characteristic of collagens, including the COL domain of type IV collagen. The method of circular dichroism was used in the research, allowing both the secondary and tertiary structure of peptides and proteins to be determined. This method can also be successfully used to observe the process of protein self-organization depending on the temperature or pH. […] A characteristic feature of triple helix collagens is the maximum at about 220 nm and the minimum at about 190–200 nm. Based on literature data, the CD spectrum corresponding to the triple helix characteristic of collagens as a function of temperature was simulated (Figure 9j). The main factors stabilizing the collagen triple helix are the hydrogen bonds between the hydrogen atom of the amino group and the oxygen atom of the carbonyl group. These are relatively weak bonds, and their stability depends, inter alia, on temperature. Therefore, the stability of the collagen triple helix changes with the change of this factor. Due to the fact that the studied collagen fragments can be potentially used in regenerative medicine, it was necessary to check the stability of the structure in the temperature range as close as possible to physiological conditions. Therefore, the tests were performed at 4 °C, 20 °C and 40 °C after incubation for 24 h. The incubation process was to enable the self-assembly to form structures that mimic the triple helix of collagen. […] In the spectra, the presence of a characteristic maximum at a wavelength of about 220 nm and a minimum at about 190–200 nm was observed. However, the most important fact is that these peptides formed stable three-dimensional structures even at 40 °C.
The CD spectra were recorded using a Jasco J-1500 instrument (Jasco, Cracow, Poland) and quartz cuvettes with 1 mm optical path lengths. The measurements were acquired in the range of 190–270 nm at temperatures of 4 °C, 20 °C and 40 °C by taking points every 5 nm, with a scan rate of 100 nm per min, an integration time of 1 s, and a bandwidth of 4 nm. The samples were prepared in MiliQ purity water with a final concentration of 0.1 mg/mL. Samples before CD measurements were incubated for 24 h. at 4 °C, 20 °C and 40 °C using a Lauda thermostat.

α1β1 integrin (ITGα1β1) = α1β1 integrin (ITGα1β1) (Homo sapiens, UniProt P05556+P56199); assay: MST determination of Kd for labeled α1β1 integrin and collagen IV fragments; assay type: binding
Sequence of α1β1 integrin (ITGα1β1) (P56199 29-1141 limits assumed): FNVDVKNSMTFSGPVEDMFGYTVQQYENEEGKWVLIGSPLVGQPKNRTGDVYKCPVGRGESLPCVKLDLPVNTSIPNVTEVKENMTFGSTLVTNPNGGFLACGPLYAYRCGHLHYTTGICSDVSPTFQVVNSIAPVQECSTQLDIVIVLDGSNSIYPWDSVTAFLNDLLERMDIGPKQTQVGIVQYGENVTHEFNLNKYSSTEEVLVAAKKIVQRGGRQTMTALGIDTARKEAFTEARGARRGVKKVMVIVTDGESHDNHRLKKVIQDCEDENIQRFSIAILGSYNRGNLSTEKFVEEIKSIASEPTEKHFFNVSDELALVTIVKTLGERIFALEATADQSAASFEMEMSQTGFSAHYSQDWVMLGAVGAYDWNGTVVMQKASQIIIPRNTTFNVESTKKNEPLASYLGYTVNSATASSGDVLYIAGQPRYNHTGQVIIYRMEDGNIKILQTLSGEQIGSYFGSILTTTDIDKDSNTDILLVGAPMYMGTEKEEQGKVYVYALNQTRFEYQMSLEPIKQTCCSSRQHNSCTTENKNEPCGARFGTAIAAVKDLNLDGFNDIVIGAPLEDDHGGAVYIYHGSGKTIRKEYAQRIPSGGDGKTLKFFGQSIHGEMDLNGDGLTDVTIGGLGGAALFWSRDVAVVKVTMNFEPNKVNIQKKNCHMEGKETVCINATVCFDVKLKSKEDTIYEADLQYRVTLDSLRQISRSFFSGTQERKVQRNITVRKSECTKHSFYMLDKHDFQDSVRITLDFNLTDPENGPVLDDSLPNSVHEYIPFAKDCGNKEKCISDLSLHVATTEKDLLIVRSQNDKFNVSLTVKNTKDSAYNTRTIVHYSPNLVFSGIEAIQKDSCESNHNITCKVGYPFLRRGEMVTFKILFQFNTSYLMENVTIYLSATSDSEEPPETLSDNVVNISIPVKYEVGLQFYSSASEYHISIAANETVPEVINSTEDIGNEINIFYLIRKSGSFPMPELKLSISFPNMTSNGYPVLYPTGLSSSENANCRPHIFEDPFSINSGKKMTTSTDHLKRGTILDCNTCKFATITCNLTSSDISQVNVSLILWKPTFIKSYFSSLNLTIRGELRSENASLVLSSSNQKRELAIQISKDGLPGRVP
Sequence of α1β1 integrin (ITGα1β1) (P05556 21-728 limits assumed): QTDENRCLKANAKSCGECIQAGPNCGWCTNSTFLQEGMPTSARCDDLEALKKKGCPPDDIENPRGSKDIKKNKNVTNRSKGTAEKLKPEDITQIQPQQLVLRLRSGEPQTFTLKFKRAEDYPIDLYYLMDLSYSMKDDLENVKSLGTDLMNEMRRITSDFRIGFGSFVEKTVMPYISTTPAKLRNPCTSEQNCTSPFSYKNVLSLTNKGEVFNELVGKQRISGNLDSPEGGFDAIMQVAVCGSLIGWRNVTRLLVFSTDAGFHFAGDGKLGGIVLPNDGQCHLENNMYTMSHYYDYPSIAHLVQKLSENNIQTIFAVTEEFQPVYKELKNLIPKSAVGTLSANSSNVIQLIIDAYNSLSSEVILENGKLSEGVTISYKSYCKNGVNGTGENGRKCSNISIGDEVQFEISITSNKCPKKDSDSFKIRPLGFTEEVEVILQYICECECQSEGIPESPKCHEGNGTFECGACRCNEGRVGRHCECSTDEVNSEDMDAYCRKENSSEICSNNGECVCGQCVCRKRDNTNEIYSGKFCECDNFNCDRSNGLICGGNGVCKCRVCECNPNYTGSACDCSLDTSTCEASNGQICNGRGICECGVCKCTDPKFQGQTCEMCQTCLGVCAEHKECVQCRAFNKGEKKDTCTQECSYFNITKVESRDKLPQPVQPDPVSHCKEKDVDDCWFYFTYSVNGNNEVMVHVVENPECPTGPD
Experimental: The tests were performed using the Microscale Thermophoresis (MST) technique [86]. […] For MST experiment His-tagged ITGα1β1 was labeled using a fluorescent dye, which enable a site-specific and stable noncovalent fluorescence labeling of polyhistidine-tagged proteins. The concentrations of labeled ITGα1β1 were kept constant at 25 nM, whereas the peptides were used as titration ligands with increasing concentrations.
The α1β1 integrin concentration was kept constant (25 nM), while the non-labeled binding partner collagen IV peptides were used at increasing concentrations as the titration ligand. The MST measurement was performed at 80% or 100% (for peptide 4) LED power and medium (40%) MST power. An MST-on time 4 s was used for analysis and a Kd (µM ± µM confidence) was derived for these interactions (n ≥ 3 independent measurements, error bars represent standard deviation).
• Preparation of Materials for MST Analysis • (1) ITGα1β1—a solution with a concentration of 9.3 µM was prepared. For this, 50 µL of sterile PBS (filtered through a 0.22 µm filter) was added to the protein. […] The fluorescent dye OG488 (ex = 498 nm, ex = 526 nm) provide an efficient method for site-specific and stable noncovalent fluorescence labeling of polyhistidine-tagged proteins. • (3) A 0.05% Tween20 solution in PBS (PBST) was prepared. • Testing the Affinity of the Dye to the Protein […]

Row | Substance | structure of aggregates stained with Congo Red [1] | ability to self-organize into structures mimicking the triple helix (CD) [2] | Ability to Mimic the Structure of the Collagen Helix [2] | Kd (α1β1 integrin (ITGα1β1); labeled His-tagged ITGα1β1 25 nM, 22 °C, MST-on time 4 s, Kd ± confidence) | ability to bind to ITGα1β1 (in words) (α1β1 integrin (ITGα1β1); labeled ITGα1β1 25 nM)
1 | ^1453VGYTLVKHSQSE^1464 [Peptide 2.3] | fibrous structures | only at 4 °C |  |  | 
2 | ^23EKSYGKPCGGQDC^35 [Peptide 2.1] | fibrous structures resembling amyloid structures | not found |  |  | 
3 | ^1311KGMRGEPGFM^1320 [Peptide 29] | fibrous structures resembling amyloid structures | not found |  |  | 
4 | ^1211PGIGIGAPGK^1220 [Peptide 27] | fibrous structures resembling amyloid structures | not found |  |  | 
5 | ^251GFPKGKKGSK^260 [Peptide 6] | only amorphous structures | have the ability to self-organize to form structures that mimic the structure of the triple helix |  |  | 
6 | ^641PGQQGLPGSK^650 [Peptide 12] | fibrous structures | only at 4 °C |  |  | 
7 | ^81PGLLGPYGPK^90 [Peptide 3] | fibrous structures resembling amyloid structures | not found |  |  | 
8 | ^1101IGNIGFPGNK^1110 [Peptide 26] | only amorphous structures | have the ability to self-organize to form structures that mimic the structure of the triple helix |  |  | 
9 | ^471LKGIKGDSGF^480 [Peptide 9] | fibrous structures resembling amyloid structures | not found |  |  | 
10 | ^721LPGFPGLPGK^730 [Peptide 15] | only amorphous structures | have the ability to self-organize to form structures that mimic the structure of the triple helix | +++ | no binding | no binding
11 | ^41CFPEKGARGR^50 [Peptide 2] | only amorphous structures | have the ability to self-organize to form structures that mimic the structure of the triple helix |  |  | 
12 | ^1520CHYARRNDKSYW^1531 [Peptide 2.4] | fibrous structures | only at 4 °C |  |  | 
13 | ^1661AGQLHTRVSR^1670 [Peptide 33] | fibrous structures |  |  |  | 
14 | ^921LKGIPGSTGK^930 [Peptide 21] | fibrous structures resembling amyloid structures | not found |  |  | 
15 | ^821GIKGKSGLPG^830 [Peptide 17] | fibrous structures | only at 4 °C |  |  | 
16 | ^951PVGIPSPRRP^960 [Peptide 22] | fibrous structures resembling amyloid structures | not found |  |  | 
17 | ^1451MRVGYTLVKH^1460 [Peptide 31] | fibrous structures resembling amyloid structures | not found |  |  | 
18 | ^671PGFPGPKGSR^680 [Peptide 13] | fibrous structures | only at 4 °C |  |  | 
19 | ^841PGKKGTRGKK^850 [Peptide 18] | fibrous structures | only at 4 °C |  |  | 
20 | ^21AGEKSYGKPC^30 [Peptide 1] | fibrous structures resembling amyloid structures | not found |  |  | 
21 | ^781PGLKGVHGKP^790 [Peptide 16] | fibrous structures resembling amyloid structures | not found |  |  | 
22 | ^1001GAPGLPGIIK^1010 [Peptide 24] | fibrous structures resembling amyloid structures | not found |  |  | 
23 | ^891LSGPKGEKGS^900 [Peptide 20] | fibrous structures resembling amyloid structures | not found |  |  | 
24 | ^1521HYARRNDKSY^1530 [Peptide 32] | fibrous structures resembling amyloid structures | not found |  |  | 
25 | ^311GPPGQQGKKG^320 [Peptide 7] | fibrous structures | only at 4 °C |  |  | 
26 | ^961MSNLWLKGDK^970 [Peptide 23] | fibrous structures resembling amyloid structures | not found |  |  | 
27 | ^541KGKKGEPILS^550 [Peptide 11] | fibrous structures resembling amyloid structures | not found |  |  | 
28 | ^1446MPGQSMRVGYTL^1457 [Peptide 2.2] | fibrous structures | only at 4 °C |  |  | 
29 | ^1221PGLRGQKGDR^1230 [Peptide 28] | fibrous structures | only at 4 °C |  |  | 
30 | ^711GFPGPRGEKG^720 [Peptide 14] | only amorphous structures | have the ability to self-organize to form structures that mimic the structure of the triple helix |  |  | 
